Assay results published in PubChem BioAssay AID1963843 (Molecular Pharmacology Branch, DTP, NCI, 2024).

System: 616215-338-R-J1-PDC complex spheroid viability
Experiment: Anticancer human tumor 616215-338-R-J1-PDC patient-derived colon adenocarcinoma cell line growth inhibition [POLQ]
Settings: for IC50: curve of first compound; for viability, T/C: stronger effect = lower value
Method in brief: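 PDC + HUVEC + MSC complex spheroids; POLQ inhibitors ± partner drugs; top conc. at/near clinical Cmax, else 10 microM (SN-38 1 microM), half-log dilutions; 37 degrees C, 5% CO2.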

[1] = second compound 0.0316 µM, first compound 0.0316 µM
[2] = second compound 0.0316 µM, first compound 0.1 µM
[3] = second compound 0.0316 µM, first compound 0.316 µM
[4] = second compound 0.0316 µM, first compound 1 µM
[5] = second compound 0.0316 µM, first compound 3.16 µM
[6] = second compound 0.0316 µM, first compound 10 µM
[7] = second compound 0.1 µM, first compound 0.0316 µM
[8] = second compound 0.1 µM, first compound 0.1 µM
[9] = second compound 0.1 µM, first compound 0.316 µM
[10] = second compound 0.1 µM, first compound 1 µM
[11] = second compound 0.1 µM, first compound 3.16 µM
[12] = second compound 0.1 µM, first compound 10 µM
[13] = second compound 0.316 µM, first compound 0.0316 µM
[14] = second compound 0.316 µM, first compound 0.1 µM
[15] = second compound 0.316 µM, first compound 0.316 µM
[16] = second compound 0.316 µM, first compound 1 µM
[17] = second compound 0.316 µM, first compound 3.16 µM
[18] = second compound 0.316 µM, first compound 10 µM
[19] = second compound 1 µM, first compound 0.0316 µM
[20] = second compound 1 µM, first compound 0.1 µM
[21] = second compound 1 µM, first compound 0.316 µM
[22] = second compound 1 µM, first compound 1 µM
[23] = second compound 1 µM, first compound 3.16 µM
[24] = second compound 1 µM, first compound 10 µM
[25] = second compound 3.16 µM, first compound 0.0316 µM
[26] = second compound 3.16 µM, first compound 0.1 µM
[27] = second compound 3.16 µM, first compound 0.316 µM
[28] = second compound 3.16 µM, first compound 1 µM
[29] = second compound 3.16 µM, first compound 3.16 µM
[30] = second compound 3.16 µM, first compound 10 µM
[31] = second compound 10 µM, first compound 0.0316 µM
[32] = second compound 10 µM, first compound 0.1 µM
[33] = second compound 10 µM, first compound 0.316 µM
[34] = second compound 10 µM, first compound 1 µM
[35] = second compound 10 µM, first compound 3.16 µM
[36] = second compound 10 µM, first compound 10 µM
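Also: spheroids exposed to compounds for one week before readout.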
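For viability, T/C in this document: percent viability relative to DMSO vehicle wells taken as 100%.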

Molecule CC(=O)O[C@H]1C(=O)[C@@]2(C)[C@H]([C@H](OC(=O)c3ccccc3)[C@]3(O)C[C@H](OC(=O)[C@H](O)[C@@H](NC(=O)c4ccccc4)c4ccccc4)C(C)=C1C3(C)C)[C@]1(OC(C)=O)CO[C@@H]1C[C@@H]2O + COC1C(OC(N)=O)C(O)C(Oc2ccc3c(O)c(NC(=O)c4ccc(O)c(CC=C(C)C)c4)c(=O)oc3c2C)OC1(C)C has an IC50 (second compound 0.0316 µM) of 41.8 nM, an IC50 (second compound 0.1 µM) of 45.4 nM and an IC50 (second compound 0.316 µM) of 25.2 nM. It also gave an IC50 (second compound 1 µM) of 26.9 nM, an IC50 (second compound 3.16 µM) of 29.3 nM and an IC50 (second compound 10 µM) of 29.8 nM. It also gave a viability, T/C (second compound 0.0316 µM, first compound 0.00949 µM) of 76.1%, a viability, T/C (second compound 0.0316 µM, first compound 0.03 µM) of 52.6% and a viability, T/C (second compound 0.0316 µM, first compound 0.0949 µM) of 41%. The viability, T/C (second compound 0.0316 µM, first compound 0.3 µM) was 38.6%, the viability, T/C (second compound 0.0316 µM, first compound 0.949 µM) was 34.3% and the viability, T/C (second compound 0.0316 µM, first compound 3 µM) was 30.5%. For the same molecule, the viability, T/C (second compound 0.1 µM, first compound 0.00949 µM) was 89.7%, the viability, T/C (second compound 0.1 µM, first compound 0.03 µM) was 54% and the viability, T/C (second compound 0.1 µM, first compound 0.0949 µM) was 42.5%. It also gave a viability, T/C (second compound 0.1 µM, first compound 0.3 µM) of 35.3%, a viability, T/C (second compound 0.1 µM, first compound 0.949 µM) of 37.1% and a viability, T/C (second compound 0.1 µM, first compound 3 µM) of 32.6%. The viability, T/C (second compound 0.316 µM, first compound 0.00949 µM) was 97.3%, the viability, T/C (second compound 0.316 µM, first compound 0.03 µM) was 41.5% and the viability, T/C (second compound 0.316 µM, first compound 0.0949 µM) was 40.4%. It also gave a viability, T/C (second compound 0.316 µM, first compound 0.3 µM) of 38.3%, a viability, T/C (second compound 0.316 µM, first compound 0.949 µM) of 38.5% and a viability, T/C (second compound 0.316 µM, first compound 3 µM) of 31.8%. The viability, T/C (second compound 1 µM, first compound 0.00949 µM) was 96.5%, the viability, T/C (second compound 1 µM, first compound 0.03 µM) was 44.1% and the viability, T/C (second compound 1 µM, first compound 0.0949 µM) was 37.1%. It also gave a viability, T/C (second compound 1 µM, first compound 0.3 µM) of 33.4%, a viability, T/C (second compound 1 µM, first compound 0.949 µM) of 31.4% and a viability, T/C (second compound 1 µM, first compound 3 µM) of 31.7%. It also gave a viability, T/C (second compound 3.16 µM, first compound 0.00949 µM) of 84.2%, a viability, T/C (second compound 3.16 µM, first compound 0.03 µM) of 48.2% and a viability, T/C (second compound 3.16 µM, first compound 0.0949 µM) of 40.8%. It also gave a viability, T/C (second compound 3.16 µM, first compound 0.3 µM) of 31.4%, a viability, T/C (second compound 3.16 µM, first compound 0.949 µM) of 36.1% and a viability, T/C (second compound 3.16 µM, first compound 3 µM) of 32.2%. It also gave a viability, T/C (second compound 10 µM, first compound 0.00949 µM) of 87.6%, a viability, T/C (second compound 10 µM, first compound 0.03 µM) of 48.3% and a viability, T/C (second compound 10 µM, first compound 0.0949 µM) of 42.2%. For the same molecule, the viability, T/C (second compound 10 µM, first compound 0.3 µM) was 34.2%, the viability, T/C (second compound 10 µM, first compound 0.949 µM) was 32.7% and the viability, T/C (second compound 10 µM, first compound 3 µM) was 36.5%.

COc1cc(C2c3cc4c(cc3C(OC3OC5COC(C)OC5C(O)C3O)C3COC(=O)C23)OCO4)cc(OC)c1O (stereo unspecified) + COC1C(OC(N)=O)C(O)C(Oc2ccc3c(O)c(NC(=O)c4ccc(O)c(CC=C(C)C)c4)c(=O)oc3c2C)OC1(C)C gave an IC50 (second compound 0.0316 µM) of over 10000 nM, an IC50 (second compound 0.1 µM) of over 10000 nM and an IC50 (second compound 0.316 µM) of over 10000 nM. It also gave an IC50 (second compound 1 µM) of 8650 nM, an IC50 (second compound 3.16 µM) of over 10000 nM and an IC50 (second compound 10 µM) of over 10000 nM. For the same molecule, the viability, T/C [1] was 100%, the viability, T/C [2] was 102% and the viability, T/C [3] was 95.3%. The viability, T/C [4] was 83%, the viability, T/C [5] was 88.3% and the viability, T/C [6] was 54.2%. For the same molecule, the viability, T/C [7] was 117%, the viability, T/C [8] was 117% and the viability, T/C [9] was 95.6%. For the same molecule, the viability, T/C [10] was 81.8%, the viability, T/C [11] was 77.1% and the viability, T/C [12] was 59.8%. It also gave a viability, T/C [13] of 108%, a viability, T/C [14] of 106% and a viability, T/C [15] of 93.4%. It also gave a viability, T/C [16] of 85.8%, a viability, T/C [17] of 81% and a viability, T/C [18] of 55%. For the same molecule, the viability, T/C [19] was 104%, the viability, T/C [20] was 113% and the viability, T/C [21] was 92.5%. The viability, T/C [22] was 86.1%, the viability, T/C [23] was 74.5% and the viability, T/C [24] was 45.8%. For the same molecule, the viability, T/C [25] was 111%, the viability, T/C [26] was 111% and the viability, T/C [27] was 100%. For the same molecule, the viability, T/C [28] was 79%, the viability, T/C [29] was 68.1% and the viability, T/C [30] was 59.3%. The viability, T/C [31] was 106%, the viability, T/C [32] was 108% and the viability, T/C [33] was 84.5%. For the same molecule, the viability, T/C [34] was 82.5%, the viability, T/C [35] was 74.1% and the viability, T/C [36] was 56.5%.

COc1cccc2c1C(=O)c1c(O)c3c(c(O)c1C2=O)CC(O)(C(=O)CO)CC3OC1CC(N)C(O)C(C)O1 (stereo unspecified) + COC1C(OC(N)=O)C(O)C(Oc2ccc3c(O)c(NC(=O)c4ccc(O)c(CC=C(C)C)c4)c(=O)oc3c2C)OC1(C)C showed an IC50 (second compound 0.0316 µM) of 948 nM, an IC50 (second compound 0.1 µM) of 762 nM and an IC50 (second compound 0.316 µM) of 864 nM. The IC50 (second compound 1 µM) was 964 nM, the IC50 (second compound 3.16 µM) was 778 nM and the IC50 (second compound 10 µM) was 1410 nM. It also gave a viability, T/C [1] of 98.8%, a viability, T/C [2] of 102% and a viability, T/C [3] of 79.2%. It also gave a viability, T/C [4] of 52.5%, a viability, T/C [5] of 8.11% and a viability, T/C [6] of 1.26%. It also gave a viability, T/C [7] of 110%, a viability, T/C [8] of 100% and a viability, T/C [9] of 69%. It also gave a viability, T/C [10] of 49.2%, a viability, T/C [11] of 9.57% and a viability, T/C [12] of 1.74%. For the same molecule, the viability, T/C [13] was 106%, the viability, T/C [14] was 97.8% and the viability, T/C [15] was 71.8%. It also gave a viability, T/C [16] of 55.5%, a viability, T/C [17] of 5.27% and a viability, T/C [18] of 0.89%. It also gave a viability, T/C [19] of 118%, a viability, T/C [20] of 110% and a viability, T/C [21] of 86.5%. It also gave a viability, T/C [22] of 53.7%, a viability, T/C [23] of 6.46% and a viability, T/C [24] of 0.25%. It also gave a viability, T/C [25] of 102%, a viability, T/C [26] of 105% and a viability, T/C [27] of 79.9%. It also gave a viability, T/C [28] of 41.9%, a viability, T/C [29] of 9.53% and a viability, T/C [30] of 0.27%. It also gave a viability, T/C [31] of 99.6%, a viability, T/C [32] of 102% and a viability, T/C [33] of 76.2%. It also gave a viability, T/C [34] of 70.4%, a viability, T/C [35] of 7.3% and a viability, T/C [36] of 0.34%.
